Among the data in patent US7893278B2, “CIS-imidazolines” (Hoffman-La Roche Inc., priority 2004, dated 2011) are IC50 values, retold here.

By IC50 is commonly meant the concentration needed to halve the response being measured.

This assay has as its target interaction between p53 and MDM2 proteins (recombinant GST-tagged MDM2) (Homo sapiens, UniProt Q00987). Put plainly: ELISA of inhibition of the interaction between p53 and MDM2 (GST-tagged MDM2 binding to immobilized p53-like peptide). The conditions noted are these: recombinant GST-tagged MDM2 / biotinylated p53-like peptide. On the technique in general: In an ELISA, binding on a coated surface is turned into a signal by an enzyme label.

interaction between p53 and MDM2 proteins (recombinant GST-tagged MDM2), sequence (Q00987 whole entry): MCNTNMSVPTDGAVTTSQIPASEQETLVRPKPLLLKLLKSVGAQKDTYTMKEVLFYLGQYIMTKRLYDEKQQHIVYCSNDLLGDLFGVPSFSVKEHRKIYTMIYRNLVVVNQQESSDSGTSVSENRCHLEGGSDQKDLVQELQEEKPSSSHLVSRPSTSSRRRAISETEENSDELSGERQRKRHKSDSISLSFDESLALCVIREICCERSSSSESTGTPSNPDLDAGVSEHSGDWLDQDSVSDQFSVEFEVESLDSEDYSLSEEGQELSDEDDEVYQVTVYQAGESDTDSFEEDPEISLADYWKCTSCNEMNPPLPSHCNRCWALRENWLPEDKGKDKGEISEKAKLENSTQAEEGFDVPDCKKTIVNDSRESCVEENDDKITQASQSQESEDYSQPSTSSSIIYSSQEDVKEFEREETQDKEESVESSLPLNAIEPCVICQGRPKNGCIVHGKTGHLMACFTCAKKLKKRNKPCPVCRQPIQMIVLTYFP

For the molecule `COc1ccc(C2=N[C@@H](c3ccc(Cl)cc3)[C@@H](c3ccc(Cl)cc3)N2C(=O)N2CCC(N3CCCC3)CC2)c(OC(C)C)c1` [Example 5, [(4S,5R)-4,5-Bis-(4-chloro-phenyl)-2-(2-isopropoxy-4-methoxy-phenyl)-4,5-dihydro-imidazol-1-yl]-(4-pyrrolidin-1-yl-piperidin-1-yl)-methanone], the IC50 was 71 nM.
